# According to patent US8633168B2, “Inhibitors of S-adenosyl-L-methionine decarboxylase” (Genzyme Corporation, priority 2007, dated 2014):
# Tests used:
# CYP2D6 = CYP2D6 (Homo sapiens, UniProt P10635); test: Cytochrome P450 inhibition, CYP2D6
# Description: (§1) This cytochrome P450 high throughput IC50 inhibition assay is utilized for screening potential inhibitors of the 5 major human CYP isozyme catalytic activities (CYP3A4, 2D6, 2C9, 2C19, and 1A2).
# CYP2C9 = CYP2C9 (Homo sapiens, UniProt P11712); test: Cytochrome P450 inhibition, CYP2C9
# Sequence of CYP2C9 (P11712 whole entry): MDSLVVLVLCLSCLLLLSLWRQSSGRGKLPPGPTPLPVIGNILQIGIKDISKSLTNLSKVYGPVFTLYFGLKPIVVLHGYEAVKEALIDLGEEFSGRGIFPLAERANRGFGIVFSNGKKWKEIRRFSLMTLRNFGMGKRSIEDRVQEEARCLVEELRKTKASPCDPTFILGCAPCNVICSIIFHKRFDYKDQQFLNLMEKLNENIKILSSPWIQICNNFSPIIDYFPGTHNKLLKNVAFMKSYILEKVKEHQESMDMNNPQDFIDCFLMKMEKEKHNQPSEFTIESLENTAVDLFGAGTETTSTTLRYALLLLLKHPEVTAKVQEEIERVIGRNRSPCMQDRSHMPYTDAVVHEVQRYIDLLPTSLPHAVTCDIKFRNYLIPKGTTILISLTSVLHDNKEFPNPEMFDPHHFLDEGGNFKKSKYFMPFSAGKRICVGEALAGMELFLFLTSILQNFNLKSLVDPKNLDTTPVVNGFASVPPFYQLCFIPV
# Description: as §1
# Schistosomes adult = test: Screening against Schistosomes, adult; type: cell-based; conditions: Screening Data
# CYP1A2 = molecular target: T1, CYP1A2 (Homo sapiens, UniProt P05177); test: Cytochrome P450 inhibition, CYP1A2
# T1 sequence (P05177 1-516): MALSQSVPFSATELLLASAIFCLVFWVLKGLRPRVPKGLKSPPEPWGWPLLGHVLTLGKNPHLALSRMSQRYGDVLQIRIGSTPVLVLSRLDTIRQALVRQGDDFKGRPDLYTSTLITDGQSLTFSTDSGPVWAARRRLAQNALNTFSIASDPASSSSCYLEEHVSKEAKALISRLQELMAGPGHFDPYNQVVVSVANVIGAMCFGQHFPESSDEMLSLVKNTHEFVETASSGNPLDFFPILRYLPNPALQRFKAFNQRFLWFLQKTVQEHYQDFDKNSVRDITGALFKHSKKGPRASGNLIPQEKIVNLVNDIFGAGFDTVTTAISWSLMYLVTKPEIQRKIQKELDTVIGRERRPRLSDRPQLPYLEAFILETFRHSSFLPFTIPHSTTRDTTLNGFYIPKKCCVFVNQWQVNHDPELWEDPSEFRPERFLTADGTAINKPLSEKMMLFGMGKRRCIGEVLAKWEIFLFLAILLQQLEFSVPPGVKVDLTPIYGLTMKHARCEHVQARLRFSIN
# Description: as §1
# CYP2C19 = CYP2C19 (Homo sapiens, UniProt P33261); test: Cytochrome P450 inhibition, CYP2C19
# Sequence of CYP2C19 (P33261 whole entry): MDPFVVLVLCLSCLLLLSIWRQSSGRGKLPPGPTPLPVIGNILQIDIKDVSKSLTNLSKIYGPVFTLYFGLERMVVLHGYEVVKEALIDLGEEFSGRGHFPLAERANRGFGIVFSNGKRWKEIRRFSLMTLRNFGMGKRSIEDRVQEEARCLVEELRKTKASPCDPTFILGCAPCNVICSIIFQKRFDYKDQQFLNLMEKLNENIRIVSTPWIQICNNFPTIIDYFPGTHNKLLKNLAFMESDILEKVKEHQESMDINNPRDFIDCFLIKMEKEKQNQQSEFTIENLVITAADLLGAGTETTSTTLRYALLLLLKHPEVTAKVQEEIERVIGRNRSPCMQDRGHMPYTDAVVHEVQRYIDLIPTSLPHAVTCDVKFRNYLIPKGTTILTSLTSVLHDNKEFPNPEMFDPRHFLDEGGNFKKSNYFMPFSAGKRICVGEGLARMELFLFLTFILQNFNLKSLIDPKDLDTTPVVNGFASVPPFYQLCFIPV
# Description: as §1
# [1] = Solubility in phosphate buffer; type: physicochemical; conditions: phosphate buffer, aqueous buffer, kinetic from dmso stock; Example 12 chart; pH 7.4
# Experimental: A stock solution for each test compound was prepared at 25 mM in DMSO. These were diluted into phosphate buffer and equilibrated for 16 hours at room temperature, and then filtered to remove precipitated compound. The UV absorbance of this equilibrated sample was compared to a single point reference standard.
# T. b. brucei = test: Cell-based screening against T. b. brucei; design: species or system Trypanosoma brucei brucei; conditions: Screening Data, two values per compound
# Experimental: The bloodstream form trypomastigotes of the three strains are maintained according to standard protocols established at STI.
# Drug sensitivity assays are performed in sterile 96-well microtiter plates, with or without serial drug dilutions. The highest concentration for the test compounds is 90 μg/ml. Each drug is tested in duplicate. After 72 hours of incubation the plates are inspected microscopically to assure growth of the controls to determine the minimum inhibitory concentration (MIC), i.e., the lowest drug concentration at which no trypanosomes with normal morphology and motility can be seen compared to control wells. Cell viability is measured by Alamar blue staining and IC50 values are calculated.
# Active compounds (IC50<0.2 μg/ml) are tested against the Trypanosoma brucei gambiense STIB 930 and the multi-drug resistant T. b. brucei STIB 950 following the same protocol as described above.
# This example provides data relating to the biological screening results. MDL 73811 and selected new compounds 1-7 were tested against a variety of cell-based organisms and enzymes and the IC50 measured. In vitro ADME profiles were also obtained. Solubility, permeability, microsomal/hepatocyte stability, cychrome P450 inhibition and plasma protein binding characteristics were probed for each of the compounds. The methodology for these tests are described in previous paragraphs. The results are summarized in the following 2 charts.
# Schistosomes lavae = test: Screening against Schistosomes, larvae; type: cell-based; conditions: Screening Data
# CYP3A4 = CYP3A4 (Homo sapiens, UniProt P08684); test: Cytochrome P450 inhibition, CYP3A4
# Sequence of CYP3A4 (P08684 whole entry): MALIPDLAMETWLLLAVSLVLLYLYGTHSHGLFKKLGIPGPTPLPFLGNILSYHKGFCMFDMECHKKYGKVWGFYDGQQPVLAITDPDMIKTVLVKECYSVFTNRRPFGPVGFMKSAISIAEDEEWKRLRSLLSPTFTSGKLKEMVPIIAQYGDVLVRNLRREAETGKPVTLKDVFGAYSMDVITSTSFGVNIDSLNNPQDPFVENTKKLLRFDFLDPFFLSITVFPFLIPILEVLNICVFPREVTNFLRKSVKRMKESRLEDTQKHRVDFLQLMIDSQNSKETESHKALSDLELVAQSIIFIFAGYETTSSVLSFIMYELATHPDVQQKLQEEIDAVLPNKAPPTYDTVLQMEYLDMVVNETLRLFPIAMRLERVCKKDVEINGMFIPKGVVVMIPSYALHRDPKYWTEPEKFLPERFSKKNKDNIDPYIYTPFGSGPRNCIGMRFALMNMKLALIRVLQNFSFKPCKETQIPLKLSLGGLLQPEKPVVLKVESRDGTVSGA
# Description: as §1
# Sequence of CYP2D6 (P10635 whole entry): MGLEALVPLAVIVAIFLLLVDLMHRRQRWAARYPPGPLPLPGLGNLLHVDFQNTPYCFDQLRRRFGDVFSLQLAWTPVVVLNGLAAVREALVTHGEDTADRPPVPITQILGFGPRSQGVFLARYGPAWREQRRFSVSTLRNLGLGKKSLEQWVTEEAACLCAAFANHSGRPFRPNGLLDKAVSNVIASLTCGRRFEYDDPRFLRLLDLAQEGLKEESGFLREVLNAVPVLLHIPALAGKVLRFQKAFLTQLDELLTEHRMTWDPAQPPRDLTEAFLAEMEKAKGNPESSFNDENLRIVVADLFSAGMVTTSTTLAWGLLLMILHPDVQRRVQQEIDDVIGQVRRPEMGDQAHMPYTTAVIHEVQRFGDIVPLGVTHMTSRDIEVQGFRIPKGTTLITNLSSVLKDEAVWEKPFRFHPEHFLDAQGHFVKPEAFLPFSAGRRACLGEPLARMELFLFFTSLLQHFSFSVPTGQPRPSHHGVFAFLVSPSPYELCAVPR
IC50 (CYP2D6),IC50 (CYP2C9),logD (LogD),IC50 (Schistosomes adult),IC50 (CYP1A2),IC50 (CYP2C19),solubility at 16 hours [1],IC50 (CYP3A4),Structure (SMILES),IC50 (T. b. brucei; Trypanosoma brucei),IC50 (Schistosomes lavae),IC50 (T. b. brucei)
> 5 µM,> 5 µM,< 1,> 10 µM,> 5 µM,> 5 µM,> 49 µg/mL,> 5 µM,Cc1nc(N)c2ncn([C@@H]3O[C@H](CN(C)C/C=C\CN)[C@@H](O)[C@H]3O)c2n1 [Compound 5],> 14 µM,> 10 µM,
> 5 µM,> 5 µM,< 1,> 10 µM,> 5 µM,> 5 µM,> 51 µg/mL,> 5 µM,CCc1nc2c(N)ncnc2n1[C@@H]1O[C@H](CN(C)C/C=C\CN)[C@@H](O)[C@H]1O [Compound 6],1.16 µM,> 10 µM,0.64 µM
> 5 µM,> 5 µM,< 1,> 10 µM,> 5 µM,> 5 µM,> 52 µg/mL,> 5 µM,CCCc1nc2c(N)ncnc2n1[C@@H]1O[C@H](CN(C)C/C=C\CN)[C@@H](O)[C@H]1O [Compound 7],12.7 µM,> 10 µM,9.4 µM
